According to patent US7615557B2, “Tetrahydro-naphthalene and urea derivatives” (Xention Limited, priority 2003, dated 2009):

Key:
[1] = biological target: T1, Human vanilloid receptor (hVR1) (Homo sapiens, UniProt Q8NER1); assay: Capsaicin-induced Ca2+ influx in the human VR1-transfected CHO cell line (Assay 1); format: cell-based; details: human VR1-CHOluc9aeq cells, stimulation with 10 nM capsaicin, Fluo-3 fluorescence (FDSS-3000); read-out: Activity Class (IC50)
T1 construct: expressed in transfected cells
Text: [Measurement of Capsaicin-induced Ca^2+ influx in the Human VR1-transfected CHO Cell Line] (Assay 1)
• (1) Establishment of the Human VR1-CHOluc9aeq Cell Line • Human vanilloid receptor (hVR1) cDNA was cloned from libraries of axotomized dorsal root ganglia (WO 00/29577). The cloned hVR1 cDNA was constructed with pcDNA3 vector and transfected into a CHOluc9aeq cell line. The cell line contains aequorin and CRE-luciferase reporter genes as read-out signals. The transfectants were cloned by limiting dilution in selection medium (DMEM/F12 medium (Gibco BRL) supplemented with 10%
FCS, 1.4 mM Sodium pyruvate, 20 mM HEPES, 0.15% Sodium bicarbonate, 100 U/ml penicillin, 100 μg/ml streptomycin, 2 mM glutamine, non-essential amino acids and 2 mg/ml G418). Ca^2+ influx was examined in the capsaicin-stimulated clones. A high responder clone was selected and used for furter experiments in the project. The human VR1-CHOluc9aeq cells were maintained in the selection medium and passaged every 3-4 days at 1-2.5×10^5 cells/flask ([…]). • (2) Measurement of Ca^2+ Influx Using FDSS-3000 • Human VR1-CHOluc9aeq cells were suspended in a culture medium which is the same as the selection medium except for G418 and seeded at a density of 1,000 cells per well into 384-well plates (black walled clear-base/Nalge Nunc International). Following the culture for 48 hrs the medium was changed to 2 μM Fluo-3 AM (Molecular Probes) and 0.02% Puronic F-127 in assay buffer (Hank's balanced salt solution (HBSS), 17 mM HEPES (pH7.4), 1 mM Probenecid, 0.1% BSA) and the cells were incubated for 60 min at 25° C. After washing twice with assay buffer the cells were incubated with a test compound or vehicle for 20 min at 25° C. Mobilization of cytoplasmic Ca^2+ was measured by FDSS-3000 (λex=488 nm, λem=540 nm/Hamamatsu Photonics) for 60 sec after the stimulation with 10 nM capsaicin. Integral R was calculated and compared with controls. [Measurement of the Capsaicin-induced Ca^2+ Influx in Primary Cultured Rat Dorsal Root Ganglia Neurons] (Assay 2) • (1) Preparation of Rat Dorsal Root Ganglia Neurons • New born Wister rats (5-11 days) were sacrificed and dorsal root ganglia (DRG) was removed. DRG was incubated with 0.1% trypsin (Gibco BRL) in PBS(−) (Gibco BRL) for 30 min at 37° C., then a half volume of fetal calf serum (FCS) was added and the cells were spun down. The DRG neuron cells were resuspended in Ham F12/5% FCS/5% horse serum (Gibco BRL) and dispersed by repeated pipetting and passing through 70 μm mesh (Falcon). The culture plate was incubated for 3 hours at 37° C. to remove contaminating Schwann cells. Non-adherent cells were recovered and further cultured in laminin-coated 384 well plates (Nunc) at 1×10^4 cells/50 μl/well for 2 days in the presence of 50 ng/ml recombinant rat NGF (Sigma) and 50 μM 5-fluorodeoxyuridine (Sigma). • (2) Ca^2+ Mobilization Assay • DRG neuron cells were washed twice with HBSS supplemented with 17 mM BEPES (pH 7.4) and 0.1% BSA. After incubating with 2 μM fluo-3AM (Volectuar Probe), 0.02% PF127 (Gibco BRL) and 1 mM probenecid (Sigma) for 40 min at 37° C., cells were washed 3 times. The cells were incubated with VR1 antagonists or vehicle (dimethylsulfoxide) and then with 1 μM capsaicin in FDSS-6000 (λex=480 mn, λem=520 nm/Hamamatsu Photonics). The fluorescence changes at […] were monitored for 2.5 min. Integral R was calculated and compared with controls. [Organ Bath Assay to Measure the Capsaicin-induced Bladder Contraction] (Assay 3) • Male Wistar rats (10 week old) were anesthetized with ether and sacrificed by dislocating the necks. The whole urinary bladder was excised and placed in oxygenated Modified Krebs-Henseleit solution (pH 7.4) of the following composition (112 mM NaCl, 5.9 mM KCl, 1.2 mM MgCl2, 1.2 mM NaH2PO4, 2 mM CaCl2, […], 12 mM glucose). Contractile responses of the urinary bladder were studied as described previously [Maggi C A et al: Br. J. Pharmacol. 108: 801-805, 1993]. […]

T1 sequence (Q8NER1 whole entry): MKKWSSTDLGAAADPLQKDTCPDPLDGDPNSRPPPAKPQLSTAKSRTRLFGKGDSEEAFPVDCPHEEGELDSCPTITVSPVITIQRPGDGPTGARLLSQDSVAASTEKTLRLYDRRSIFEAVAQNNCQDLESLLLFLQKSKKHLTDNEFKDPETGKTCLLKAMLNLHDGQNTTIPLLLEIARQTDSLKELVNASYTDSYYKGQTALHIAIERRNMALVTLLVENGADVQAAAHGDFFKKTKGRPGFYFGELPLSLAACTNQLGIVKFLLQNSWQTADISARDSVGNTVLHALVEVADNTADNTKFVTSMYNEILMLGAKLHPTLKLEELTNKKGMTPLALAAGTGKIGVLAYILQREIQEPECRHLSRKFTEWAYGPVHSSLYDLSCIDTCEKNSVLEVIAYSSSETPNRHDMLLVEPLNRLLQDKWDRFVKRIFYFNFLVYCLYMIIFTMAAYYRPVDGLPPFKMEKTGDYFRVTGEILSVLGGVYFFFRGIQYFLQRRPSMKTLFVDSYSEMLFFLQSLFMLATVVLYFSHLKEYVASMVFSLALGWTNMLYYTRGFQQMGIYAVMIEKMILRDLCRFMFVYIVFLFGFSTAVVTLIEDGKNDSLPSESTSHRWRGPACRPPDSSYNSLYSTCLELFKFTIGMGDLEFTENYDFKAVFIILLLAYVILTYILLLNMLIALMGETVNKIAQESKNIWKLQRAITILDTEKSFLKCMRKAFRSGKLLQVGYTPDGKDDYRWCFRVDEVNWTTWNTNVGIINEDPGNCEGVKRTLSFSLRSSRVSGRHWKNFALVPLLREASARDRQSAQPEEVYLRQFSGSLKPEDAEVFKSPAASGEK

Compound	IC50 [1]	melting point
O=C(Nc1cccc2c1C[C@@H](O)CC2)C1CCN(c2ccc(C(F)(F)F)cc2Cl)CC1 [Example 1-1, 1-[2-Chloro-4-(trifluoromethyl)phenyl]-N-[(7S)-7-hydroxy-5,6,7,8-tetrahydro-naphthalen-1-yl]piperidine-4-carboxamide]	< 100 nM	
O=C(Nc1cccc2c1C[C@H](O)CC2)C1CCN(c2cccc(Cl)c2)CC1 [Example 1-2, 1-[3-Chlorophenyl]-N-[(7R)-7-hydroxy-5,6,7,8-tetrahydronaphthalen-1-yl]piperidine-4-carboxamide]	< 100 nM	
O=C(Nc1cccc2c1CC(O)CC2)C1CCN(c2ccccc2Cl)CC1 (stereo not drawn) [Example 1-3]	< 100 nM	210 °C
O=C(Nc1cccc2c1CC(O)CC2)C1CCN(c2ccccc2[N+](=O)[O-])CC1 (stereo not drawn) [Example 1-4, N-(7-Hydroxy-5,6,7,8-tetrahydronaphthalen-1-yl)-1-(2-nitrophenyl)piperidine-4-carboxamide]	< 100 nM	170 °C
O=C(Nc1cccc2c1CC(O)CC2)C1CCN(c2ccc(C(F)(F)F)cc2[N+](=O)[O-])CC1 (stereo not drawn) [Example 1-5, N-(7-Hydroxy-5,6,7,8-tetrahydronaphthalen-1-yl)-1-[2-nitro(trifluoromethyl)phenyl]piperidine-4-carboxamide]	< 100 nM	218 °C
O=C(Nc1cccc2c1CC(O)CC2)C1CCN(c2ccccc2F)CC1 (stereo not drawn) [Example 1-6, 1-(2-Fluorophenyl)-N-(7-hydroxy-5,6,7,8-tetrahydronaphthalen-1-yl)piperidine-4-carboxamide]	< 100 nM	207 °C
O=C(Nc1cccc2c1CC(O)CC2)C1CCN(c2ccc(F)cc2)CC1 (stereo not drawn) [Example 1-7, 1-(4-Fluorophenyl)-N-(7-hydroxy-5,6,7,8-tetrahydronaphthalen-1-yl)piperidine-4-carboxamide]	< 100 nM	205 °C
O=C(Nc1cccc2c1CC(O)CC2)C1CCN(c2ccc(Cl)cc2C(F)(F)F)CC1 (stereo not drawn) [Example 1-8, 1-[4-Chloro-2-(trifluoromethyl)phenyl]-N-(7-hydroxy-5,6,7,8-tetrahydronaphthalen-1-yl)piperidine-4-carboxamide]	< 100 nM	182 °C
O=C(Nc1cccc2c1CC(O)CC2)C1CCN(c2ccc(C(F)(F)F)cc2)CC1 (stereo not drawn) [Example 1-9, N-(7-Hydroxy-5,6,7,8-tetrahydronaphthalen-1-yl)-1-[4-(trifuoromethyl)phenyl]piperidine-4-carboxamide]	< 100 nM	222 °C
O=C(Nc1cccc2c1CC(O)CC2)C1CCN(c2ccc(C(F)(F)F)cc2Cl)CC1 (stereo not drawn) [Example 1-10, 1-[2-Chloro-4-(trifluoromethyl)phenyl]-N-(7-hydroxy-5,6,7,8-tetrahydronaphthalen-1-yl)piperidine-4-carboxamide]	< 100 nM	226 °C
O=C(Nc1cccc2c1C[C@H](O)CC2)C1CCN(c2ccc(F)cc2)CC1 [Example 1-11, 1-(4-Fluorophenyl)-N-[(7R)-7-hydroxy-5,6,7,8-tetrahydronaphthalen-1-yl]piperidine-4-carboxamide]	< 100 nM	205 °C
O=C(Nc1cccc2c1C[C@@H](O)CC2)C1CCN(c2ccc(F)cc2)CC1 [Example 1-12, 1-(4-Fluorophenyl)-N-[(7S)-7-hydroxy-5,6,7,8-tetrahydronaphthalen-1-yl]piperidine-4-carboxamide]	< 100 nM	205 °C
O=C(Nc1cccc2c1C[C@H](O)CC2)C1CCN(c2ccc(C(F)(F)F)cc2Cl)CC1 [Example 1-13, 1-[2-Chloro-4-(trifluoromethyl)phenyl]-N-[(7R)-7-hydroxy-5,6,7,8-tetrahydronaphthalen-1-yl]piperidine-4-carboxamide]	< 100 nM	226 °C

Second part, the molecule after the results:

IC50 [1]	melting point	Compound
< 100 nM		O=C(Nc1cccc2c1C[C@H](O)CC2)C1CCN(c2ccccc2)CC1 [Example 1-14]
< 100 nM		O=C(Nc1cccc2c1C[C@H](O)CC2)C1CCN(c2cccc(C(F)(F)F)c2)CC1 [Example 1-15, N-[(7R)-7-Hydroxy-5,6,7,8-tetrahydronaphthalen-1-yl]-1-[3-trifluoromethyl-phenyl]piperidine-4-carboxamide]
< 100 nM		O=C(Nc1cccc2c1C[C@H](O)CC2)C1CCN(c2cccc(OC(F)(F)F)c2)CC1 [Example 1-16, N-[(7R)-7-Hydroxy-5,6,7,8-tetrahydronaphthalen-1-yl]-1-[3-trifluoromethoxy-phenyl]piperidine-4-carboxamide]
< 100 nM		O=C(Nc1cccc2c1C[C@H](O)CC2)C1CCN(c2ccc(Cl)cc2Cl)CC1 [Example 1-17, 1-[2,4-Dichlorophenyl]-N-[(7R)-7-hydroxy-5,6,7,8-tetrahydronaphthalen-1-yl]piperidine-4-carboxamide]
< 100 nM		O=C(Nc1cccc2c1C[C@H](O)CC2)C1CCN(c2ccc(OC(F)(F)F)c(OC(F)(F)F)c2)CC1 [Example 1-18, 1-[3,4-Bis[trifluoromethoxy]phenyl]-N-[(7R)-7-hydroxy-5,6,7,8-tetrahydro-naphthalen-1-yl]piperidine-4-carboxamide]
< 100 nM		O=C(Nc1cccc2c1C[C@H](O)CC2)C1CCN(c2ccc(OC(F)(F)F)cc2)CC1 [Example 1-19, N-[(7R)-7-Hydroxy-5,6,7,8-tetrahydronaphthalen-1-yl]-1-[4-trifluoromethoxy-phenyl]piperidine-4-carboxamide]
< 100 nM		O=C(Nc1cccc2c1C[C@H](O)CC2)C1CCN(c2nccc(C(F)(F)F)n2)CC1 [Example 1-20, N-[(7R)-7-Hydroxy-5,6,7,8-tetrahydronaphthalen-1-yl]-1-[4-trifluoromethyl-pyrimidin-2-yl]-piperidine-4-carboxamide]
< 100 nM		O=C(Nc1cccc2c1C[C@H](O)CC2)C1CCN(c2ncc(Cl)cn2)CC1 [Example 1-21, 1-[5-Chloropyrimidin-2-yl]-N-[(7R)-7-hydroxy-5,6,7,8-tetrahydronaphthalen-1-yl]piperidine-4-carboxamide]
< 100 nM		O=C(Nc1cccc2c1C[C@H](O)CC2)C1CCN(c2ccc([N+](=O)[O-])cc2Cl)CC1 [Example 1-22, 1-[2-Chloro-4-nitrophenyl]-N-[(7R)-7-hydroxy-5,6,7,8-tetrahydronaphthalen-1-yl]piperidine-4-carboxamide]
< 100 nM		CC(=O)Nc1cc(C(F)(F)F)ccc1N1CCC(C(=O)Nc2cccc3c2C[C@H](O)CC3)CC1 [Example 1-23]
< 100 nM		O=C(Nc1cccc2c1C[C@H](O)CC2)C1CCN(c2ccc(C(F)(F)F)cn2)CC1 [Example 1-24, N-[(7R)-7-Hydroxy-5,6,7,8-tetrahydronaphthalen-1-yl]-1-[5-(trifluoromethyl)-pyridin-2-yl]piperidine-4-carboxamide]
< 100 nM		O=C(Nc1cccc2c1C[C@H](O)CC2)C1CCN(c2ccc(C(F)(F)F)cc2)CC1 [Example 1-25, N-[(7R)-7-Hydroxy-5,6,7,8-tetrahydronaphthalen-1-yl]-1-[4-trifluoromethyl-phenyl]piperidine-4-carboxamide]
